Results taken from the supplement of paper PMC10883282.

Assays:
Assay in all cases: relative viability vs DMSO control (72 h) (fraction); higher = more viable cells
G401 = system: G401
In short: (§1)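 ATPLite readings, expressed as percent growth and averaged over up to triplicate wells, provided relative viability. Before reading, sarcoma cell lines seeded in 384-well plates to reach 80–90% confluence received 2.5 µl of serially diluted compound after 24 h, from source plates of 10 mM to 0.0002 mM. Plates were held 72 h at 37 °C, 5% CO2, with 0.1% DMSO as vehicle and a 5 µM positive control. The data were rescaled to 1 for full and 0 for none.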

HT1080 = system: HT1080
In short: as §1

KHOS-NP = system: KHOS-NP
In short: as §1

MES-SA = system: MES-SA
In short: as §1

RD-ES = system: RD-ES
In short: as §1

RD = system: RD
In short: as §1

SK-ES-1 = system: SK-ES-1
In short: as §1

SK-LMS-1 = system: SK-LMS-1
In short: as §1

SW1353 = system: SW1353
In short: as §1

SW684 = system: SW684
In short: as §1

SW872 = system: SW872
In short: as §1

VA-ES-BJ = system: VA-ES-BJ
In short: as §1

C=CC(=O)N1CCC(CNc2ncnc(N)c2-c2ccc(Oc3ccccc3)cc2)CC1 [Evobrutinib]
Details | relative viability
G401, 0.00017 µM | 1.05
G401, 0.00051 µM | 1.01
G401, 0.00152 µM | 1.01
G401, 0.00457 µM | 1.02
G401, 0.01372 µM | 1.03
G401, 0.04115 µM | 1.03
G401, 0.1235 µM | 1
G401, 0.3704 µM | 1.02
G401, 1.111 µM | 0.982
G401, 3.333 µM | 1
G401, 10 µM | 0.894
HT1080, 0.00017 µM | 1.11
HT1080, 0.00051 µM | 1.1
HT1080, 0.00152 µM | 1.1
HT1080, 0.00457 µM | 1.14
HT1080, 0.01372 µM | 1.082
HT1080, 0.04115 µM | 1.08
HT1080, 0.1235 µM | 1.091
HT1080, 0.3704 µM | 1.078
HT1080, 1.111 µM | 1.07
HT1080, 3.333 µM | 1.1
HT1080, 10 µM | 1.08
KHOS-NP, 0.00017 µM | 1.11
KHOS-NP, 0.00051 µM | 1.13
KHOS-NP, 0.00152 µM | 1.13
KHOS-NP, 0.00457 µM | 1.13
KHOS-NP, 0.01372 µM | 1.12
KHOS-NP, 0.04115 µM | 1.128
KHOS-NP, 0.1235 µM | 1.12
KHOS-NP, 0.3704 µM | 1.12
KHOS-NP, 1.111 µM | 1.12
KHOS-NP, 3.333 µM | 1.12
KHOS-NP, 10 µM | 1.12
MES-SA, 0.00017 µM | 1
MES-SA, 0.00051 µM | 0.9618
MES-SA, 0.00152 µM | 0.963
MES-SA, 0.00457 µM | 0.9579
MES-SA, 0.01372 µM | 0.964
MES-SA, 0.04115 µM | 0.956
MES-SA, 0.1235 µM | 0.968
MES-SA, 0.3704 µM | 0.933
MES-SA, 1.111 µM | 0.928
MES-SA, 3.333 µM | 0.892
MES-SA, 10 µM | 0.792
RD, 0.00017 µM | 1.06
RD, 0.00051 µM | 1.09
RD, 0.00152 µM | 1.09
RD, 0.00457 µM | 1.08
RD, 0.01372 µM | 1.11
RD, 0.04115 µM | 1.11
RD, 0.1235 µM | 1.12
RD, 0.3704 µM | 1.09
RD, 1.111 µM | 1.08
RD, 3.333 µM | 1.07
RD, 10 µM | 1.11
RD-ES, 0.00017 µM | 0.985
RD-ES, 0.00051 µM | 1
RD-ES, 0.00152 µM | 0.99
RD-ES, 0.00457 µM | 1
RD-ES, 0.01372 µM | 1
RD-ES, 0.04115 µM | 1.03
RD-ES, 0.1235 µM | 1.01
RD-ES, 0.3704 µM | 0.981
RD-ES, 1.111 µM | 0.9603
RD-ES, 3.333 µM | 0.976
RD-ES, 10 µM | 0.946
SK-ES-1, 0.00017 µM | 1.12
SK-ES-1, 0.00051 µM | 1.14
SK-ES-1, 0.00152 µM | 1.1
SK-ES-1, 0.00457 µM | 1.04
SK-ES-1, 0.01372 µM | 1.04
SK-ES-1, 0.04115 µM | 1.09
SK-ES-1, 0.1235 µM | 1.05
SK-ES-1, 0.3704 µM | 1.06
SK-ES-1, 1.111 µM | 1.03
SK-ES-1, 3.333 µM | 1.01
SK-ES-1, 10 µM | 1.02
SK-LMS-1, 0.00017 µM | 1.08
SK-LMS-1, 0.00051 µM | 1.1
SK-LMS-1, 0.00152 µM | 1.08
SK-LMS-1, 0.00457 µM | 1.08
SK-LMS-1, 0.01372 µM | 1.04
SK-LMS-1, 0.04115 µM | 1.11
SK-LMS-1, 0.1235 µM | 1.11
SK-LMS-1, 0.3704 µM | 1.05
SK-LMS-1, 1.111 µM | 1.08
SK-LMS-1, 3.333 µM | 0.997
SK-LMS-1, 10 µM | 0.981
SW684, 0.00017 µM | 1.15
SW684, 0.00051 µM | 1.19
SW684, 0.00152 µM | 1.2
SW684, 0.00457 µM | 1.22
SW684, 0.01372 µM | 1.2
SW684, 0.04115 µM | 1.16
SW684, 0.1235 µM | 1.22
SW684, 0.3704 µM | 1.18
SW684, 1.111 µM | 1.19
SW684, 3.333 µM | 1.19
SW684, 10 µM | 1.174
SW872, 0.00017 µM | 1.05
SW872, 0.00051 µM | 1.056
SW872, 0.00152 µM | 1.04
SW872, 0.00457 µM | 1.04
SW872, 0.01372 µM | 1.03
SW872, 0.04115 µM | 1.03
SW872, 0.1235 µM | 1.07
SW872, 0.3704 µM | 1.04
SW872, 1.111 µM | 1.02
SW872, 3.333 µM | 1.03
SW872, 10 µM | 1.01
SW1353, 0.00017 µM | 1.07
SW1353, 0.00051 µM | 1.07
SW1353, 0.00152 µM | 1.09
SW1353, 0.00457 µM | 1.06
SW1353, 0.01372 µM | 1.02
SW1353, 0.04115 µM | 1.007
SW1353, 0.1235 µM | 1.048
SW1353, 0.3704 µM | 1.02
SW1353, 1.111 µM | 0.974
SW1353, 3.333 µM | 0.949
SW1353, 10 µM | 0.853
VA-ES-BJ, 0.00017 µM | 1.1
VA-ES-BJ, 0.00051 µM | 1.08
VA-ES-BJ, 0.00152 µM | 1.07
VA-ES-BJ, 0.00457 µM | 1.08
VA-ES-BJ, 0.01372 µM | 1.09
VA-ES-BJ, 0.04115 µM | 1.043
VA-ES-BJ, 0.1235 µM | 1.06
VA-ES-BJ, 0.3704 µM | 1.06
VA-ES-BJ, 1.111 µM | 1.06
VA-ES-BJ, 3.333 µM | 1.1
VA-ES-BJ, 10 µM | 1.1
